The term IC50 denotes the midpoint of a concentration-inhibition curve.

Marks after values point to notes of the source that are not given here.

In one data set the test system is excised pig skin. As to conditions: 1 %.
Data set [1] concerns pS6 S235/S236 in A2058 cells. The data set is described as follows: In-cell Western blot, pS6 S235/S236. Type of data set: cell-based. As to conditions: Homo sapiens, 1 hour treatment.
Method: (§1) Cells are fixed with 4% paraformaldehyde for 30 minutes at room temperature, washed 2 times with 1% BSA in PBS, permeabilized with 0.1% Triton X-100 in PBS/1% BSA for 30 minutes at room temperature and blocked with 5% goat serum in PBS/1% BSA/0.1% Triton X-100 for 30 minutes at room temperature. […] Cells are washed 3 times 5 minutes with PBS/1% BSA/0.1% triton and plate scanned with the Odyssey Infrared Scanning system using both 700 and 800 nm channels. […] To correct for background staining in the data analysis wells are treated only with secondary antibodies.
(§2) For data analysis the mean background signal from channel 700 nm and 800 nm are subtracted from each signal in channel 700 nm and 800 nm, respectively.
(§3) IC50 values of each compound are determined by plotting the normalized pPBK S473 and pS6 S235/S236 signals, respectively, versus the compound concentrations (in logarithmic scale) and then by fitting a sigmoidal dose-response curve with variable slope to the data using GraphPad™ Prism.
The test system of data set [2] is pig skin (lower epidermis and dermis). The experiment in a line: Ex vivo pig skin penetration, first study (80% SBECD formulations). Type of data set: in vitro ADME. The source says:
FIG. 3: PK profiles of nine formulations comprising the inventive compounds and control have been assessed. The control formulation Aldara (5% imiquimod) was applied to detect variations in skin permeability (local variability in the same animal and inter-subject variability). The stratum corneum was removed by tape stripping to avoid contamination during the biopsy extraction. […] One biopsy was taken from each control site. Additionally, 5 blank samples were taken.
Ex vivo and in vivo models to assess the penetration of various drug substances including the inventive compounds in the skin of pigs have been established. This model allows to assess the PK profile of several drug candidates including the inventive compounds in one subject, thereby enhancing comparability and avoiding inter-subject variability.
In the first study (FIG. 3, Table 15) the PK profiles of nine test formulations have been assessed using 80% SBECD either at pH3 or pH 7.

In data set [3] the target is T1, N-terminally GST-tagged mTOR (Homo sapiens, UniProt P42345).
T1 construct: truncated version: amino acids 1360-2549; purchased Life Technologies PR8683B
The experiment in a line: In vitro mTOR binding assay (LanthaScreen TR-FRET). As to conditions: LanthaScreen kinase binding, Tracer 314; read-out: mTOR IC50 (binding). In general terms: TR-FRET usually uses a lanthanide donor and a delayed reading to cut background.
Method: A 10-point 4-fold serial dilution (highest concentration at 10 μmol/L and lowest concentration at 40 μmol/L) of each compound was tested for mTOR binding in duplicate in a 384-well plate. […] After 30 min incubation at RT, time-resolved FRET was measured with a Synergy 4 multi-mode microplate reader (Biotek Instruments) using the following settings: 100 microsecs delay before data collection, 200 microsecs time for data collection, 10 measurements per data point.
IC50 values of each compound were determined by plotting the emission ratio versus the compound concentrations (in logarithmic scale) and then by fitting a sigmoidal dose-response curve with variable slope to the data using GraphPad™ Prism.

The next data set has as its system pPKB S473 in A2058 cells. The data set is described as follows: In-cell Western blot, pPKB S473. As to conditions: Homo sapiens, 1 hour treatment. Type of data set: cell-based.

T1 sequence (P42345 1360-2549): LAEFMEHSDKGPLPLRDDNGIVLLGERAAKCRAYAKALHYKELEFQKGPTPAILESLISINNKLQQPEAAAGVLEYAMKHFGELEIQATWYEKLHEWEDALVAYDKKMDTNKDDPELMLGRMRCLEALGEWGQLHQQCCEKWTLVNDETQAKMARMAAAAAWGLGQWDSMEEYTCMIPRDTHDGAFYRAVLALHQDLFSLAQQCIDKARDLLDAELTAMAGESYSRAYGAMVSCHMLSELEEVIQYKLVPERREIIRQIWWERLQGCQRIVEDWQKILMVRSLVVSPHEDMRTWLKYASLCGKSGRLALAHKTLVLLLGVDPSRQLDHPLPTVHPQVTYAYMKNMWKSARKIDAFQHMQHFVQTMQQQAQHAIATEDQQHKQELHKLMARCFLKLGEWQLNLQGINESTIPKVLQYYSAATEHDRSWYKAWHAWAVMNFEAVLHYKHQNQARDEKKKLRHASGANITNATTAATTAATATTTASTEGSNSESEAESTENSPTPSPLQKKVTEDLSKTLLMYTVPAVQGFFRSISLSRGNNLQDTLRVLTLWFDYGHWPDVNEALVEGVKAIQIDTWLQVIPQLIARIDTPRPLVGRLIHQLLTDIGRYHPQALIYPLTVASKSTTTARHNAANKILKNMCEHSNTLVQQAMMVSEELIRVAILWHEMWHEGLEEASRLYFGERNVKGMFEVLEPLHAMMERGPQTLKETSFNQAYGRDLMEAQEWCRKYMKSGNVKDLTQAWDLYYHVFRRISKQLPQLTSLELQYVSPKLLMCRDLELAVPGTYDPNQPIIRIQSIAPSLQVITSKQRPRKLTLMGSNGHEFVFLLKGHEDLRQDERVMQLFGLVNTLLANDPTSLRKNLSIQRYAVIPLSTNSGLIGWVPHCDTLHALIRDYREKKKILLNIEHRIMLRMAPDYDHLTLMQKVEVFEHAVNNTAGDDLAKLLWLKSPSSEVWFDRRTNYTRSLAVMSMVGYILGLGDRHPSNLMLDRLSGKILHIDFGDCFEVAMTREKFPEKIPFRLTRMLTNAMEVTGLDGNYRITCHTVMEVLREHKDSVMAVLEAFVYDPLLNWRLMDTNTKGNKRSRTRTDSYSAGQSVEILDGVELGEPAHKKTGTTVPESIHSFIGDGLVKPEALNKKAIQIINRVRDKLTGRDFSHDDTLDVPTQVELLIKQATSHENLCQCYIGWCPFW
From the text for excised pig skin: Excised pig skin was placed in a climate chamber to control temperature and humidity. […] Before biopsies were taken the stratum corneum was removed by tape stripping and biopsies consisted of the remaining epidermis and entire dermis.
Method for pPKB S473 in A2058 cells: as §1, §2, §3

As to `Nc1cc(C(F)F)c(-c2nc(N3C4CCC3COC4)nc(N3C4CCC3COC4)n2)cn1` [Compound 3, 5-(4-(3-oxa-8-azabicyclo[3.2.1]octan-8-yl)-6-(3-oxa-8-azabicyclo[3.2.1]octan-8-yl)-1,3,5-triazin-2-yl)-4-(difluoromethyl)pyridin-2-amine], in the data set on excised pig skin, the “skin concentration / skin PK profile” value is listed as “comparable to Cpd1*”. The half-maximal inhibitory concentration (IC50) was 105 nM in data set [1] (A2058, 1 h); 8 nM in data set [3]; 231 nM with pPKB S473 in A2058 cells (A2058, 1 h). Besides, in data set [2] (1% experimental formulations, 80% SBECD, ex vivo), the “penetration into pig skin” value is “penetrated into pig skin (lower epidermis and dermis) to a significant extent”. In data set [2] (ex vivo pig skin, estimated), the “intrinsic penetration properties compared with imiquimod (Aldara 5% cream)” value is given as “slightly lower”.

With `C[C@@H]1COCCN1c1nc(-c2cnc(N)cc2C(F)F)nc(N2CCOCC2(C)C)n1` [Compound 45, 4-(difluoromethyl)-5-[4-(3,3-dimethylmorpholin-4-yl)-6-[(3R)-3-methylmorpholin-4-yl]-1,3,5-triazin-2-yl]pyridin-2-amine], the IC50 worked out at 93 nM in data set [1] (A2058, 1 h); 7 nM in data set [3]; 234 nM in the data set with pPKB S473 in A2058 cells (A2058, 1 h).

For the molecule `COC[C@@H]1COCCN1c1nc(-c2cnc(N)cc2C(F)F)nc(N2CCOC[C@H]2C)n1` [Compound 46, 4-(difluoromethyl)-5-[4-[(3R)-3-(methoxymethyl)morpholin-4-yl]-6-[(3R)-3-methylmorpholin-4-yl]-1,3,5-triazin-2-yl]pyridin-2-amine], the IC50 came out at 426 nM in data set [1] (A2058, 1 h); 36 nM in data set [3]; 956 nM with pPKB S473 in A2058 cells (A2058, 1 h).

As for `C[C@@H]1COCCN1c1nc(-c2cnc(N)cc2C(F)F)nc(N2C3COCC2COC3)n1` [Compound 47, 4-(difluoromethyl)-5-[4-(3,7-dioxa-9-azabicyclo[3.3.1]nonan-9-yl)-6-[(3R)-3-methylmorpholin-4-yl]-1,35-triazin-2-yl]pyridin-2-amine], the IC50 in data set [1] (A2058, 1 h) is 176 nM; in data set [3] it was 29 nM; in the data set on pPKB S473 in A2058 cells (A2058, 1 h), 469 nM.

In the case of `C[C@@H]1COC[C@H](C)N1c1nc(-c2cnc(N)cc2C(F)F)nc(N2CCOCC2(C)C)n1` [Compound 66, 4-(difluoromethyl)-5-[4-(3,3-dimethylmorpholin-4-yl)-6-[(3R,5S)-3,5-dimethylmorpholin-4-yl]-1,3,5-triazin-2-yl]pyridin-2-amine], the IC50 in data set [1] (A2058, 1 h) amounted to 139 nM; in data set [3], 4 nM; with pPKB S473 in A2058 cells (A2058, 1 h), 244 nM.

As to `CC1(C)COCCN1c1nc(-c2cnc(N)cc2C(F)F)nc(N2C3COCC2COC3)n1` [Compound 69, 4-(difluoromethyl)-5-[4-(3,3-dimethylmorpholin-4-yl)-6-(3,7-dioxa-9-azabicyclo[3.3.1]nonan-9-yl)-1,3,5-triazin-2-yl]pyridin-2-amine], the IC50 in data set [1] (A2058, 1 h) was determined as 140 nM; in data set [3], 21 nM; in the data set on pPKB S473 in A2058 cells (A2058, 1 h) it was 244 nM.

Consider `C[C@@H]1COCCN1c1nc(-c2cnc(N)cc2C(F)F)nc(N2[C@H](C)COC[C@H]2C)n1` [Compound 78, 4-(difluoromethyl)-5-[4-[(3R,5R)-3,5-dimethylmorpholin-4-yl]-6-[(3R)-3-methylmorpholin-4-yl]-1,3,5-triazirin-2-yl]pyridin-2-amine], for which the IC50 is 392 nM in data set [1] (A2058, 1 h); 38 nM in data set [3]; 506 nM with pPKB S473 in A2058 cells (A2058, 1 h).

For the molecule `C[C@@H]1COCCN1c1nc(-c2cnc(N)cc2C(F)F)nc(N2[C@@H](C)COC[C@@H]2C)n1` [Compound 79, 4-(difluoromethyl)-5-[4-[(3S,5S)-3,5-dimethylmorpholin-4-yl]-6-[(3R)-3-methylmorpholin-4-yl]-1,3,5-triazin-2-yl]pyridin-2-amine], the IC50 in data set [1] (A2058, 1 h) was determined as 136 nM; in data set [3], 10 nM; in the data set with pPKB S473 in A2058 cells (A2058, 1 h), 200 nM.

For the molecule `Nc1cc(C(F)F)c(-c2nc(N3C4CCCC3COC4)nc(N3C4COCC3COC4)n2)cn1` [Compound 82, 4-(difluoromethyl)-5-[4-(3,7-dioxa-9-azabicyclo[3.3.1]nonan-9-yl)-6-(3-oxa-9-azabicyclo[3.3.1]nonan-9-yl)-1,3,5-triazin-2-yl]pyridin-2-amine], the IC50 in data set [1] (A2058, 1 h) stood at 169 nM; in data set [3], 40 nM; with pPKB S473 in A2058 cells (A2058, 1 h) it was 329 nM.

On to `C[C@H]1COC[C@H](C)N1c1nc(-c2cnc(N)cc2C(F)F)nc(N2[C@@H](C)COC[C@@H]2C)n1` [Compound 83, 5-[4,6-bis[(3S,5S)-3,5-dimethylmorpholin-4-yl]-1,3,5-triazin-2-yl]-4-(difluoromethyl)pyridin-2-amine], for which the figures for the IC50 (in data set [1]; in data set [3]; in the data set with pPKB S473 in A2058 cells) were 294 nM, 32 nM and 379 nM, respectively.

Turning to `C[C@@H]1COCCN1c1nc(-c2cnc(N)cc2C(F)F)nc(N2CCOCC23CCC3)n1` [Compound 88, 4-(difluoromethyl)-5-[4-[(3R)-3-methylmorpholin-4-yl]-6-(8-oxa-5-azaspiro[3.5]nonan-5-yl)-1,3,5-triazin-2-yl]pyridin-2-amine], the IC50 in data set [1] (A2058, 1 h) came to 192 nM; in data set [3], 18 nM; in the data set with pPKB S473 in A2058 cells (A2058, 1 h), 271 nM.

With `Nc1ncc(-c2cc(N3CCOCC3)nc(N3CCOCC3)n2)c(C(F)(F)F)n1` [reference compound], the IC50 in data set [1] (A2058, 1 h) came out at 384 nM; in data set [3], 644 nM; in the data set on pPKB S473 in A2058 cells (A2058, 1 h) it was 194 nM.

For the molecule `Nc1cc(C(F)(F)F)c(-c2nc(N3CCOCC3)cc(N3CCOCC3)n2)cn1` [reference compound], the values for the IC50 (in data set [1]; in data set [3]; in the data set on pPKB S473 in A2058 cells) were 665 nM, 366 nM and 555 nM, respectively.

On to `Nc1ncc(-c2nc(N3CCOCC3)cc(N3CCOCC3)n2)c(C(F)(F)F)n1` [reference compound], for which the IC50 was found to be 370 nM in data set [1] (A2058, 1 h); 1920 nM in data set [3]; 175 nM in the data set on pPKB S473 in A2058 cells (A2058, 1 h).

For the molecule `C[C@H]1COCCN1c1cc(-c2cnc(N)cc2C(F)(F)F)nc(N2CCOC[C@@H]2C)n1` [reference compound], the IC50 in data set [1] (A2058, 1 h) was 553 nM; in data set [3], 152 nM; with pPKB S473 in A2058 cells (A2058, 1 h), 452 nM.

As to `C[C@H]1COCCN1c1cc(-c2cnc(N)nc2C(F)(F)F)nc(N2CCOC[C@@H]2C)n1` [reference compound], the IC50 in data set [1] (A2058, 1 h) was determined as 617 nM; in data set [3], 287 nM; in the data set on pPKB S473 in A2058 cells (A2058, 1 h), 193 nM.

For the molecule `C[C@H]1COCCN1c1cc(-c2cnc(N)cc2C(F)(F)F)nc(N2CCOCC2)n1` [reference compound], the IC50 was 1100 nM in data set [1] (A2058, 1 h); 376 nM in data set [3]; 883 nM in the data set on pPKB S473 in A2058 cells (A2058, 1 h).

Regarding `C[C@H]1COCCN1c1cc(-c2cnc(N)nc2C(F)(F)F)nc(N2CCOCC2)n1` [reference compound], the IC50 came to 1030 nM in data set [1] (A2058, 1 h); 1250 nM in data set [3]; 290 nM with pPKB S473 in A2058 cells (A2058, 1 h).

On to `Nc1cc(C(F)(F)F)c(-c2cc(N3CCOCC3)nc(N3C4CCC3COC4)n2)cn1` [reference compound], for which the half-inhibitory concentration (IC50) was 562 nM in data set [1] (A2058, 1 h); 88 nM in data set [3]; 564 nM in the data set on pPKB S473 in A2058 cells (A2058, 1 h).

In the case of `Nc1ncc(-c2cc(N3CCOCC3)nc(N3C4CCC3COC4)n2)c(C(F)(F)F)n1` [reference compound], the IC50 in data set [1] (A2058, 1 h) stood at 740 nM; in data set [3] it was 121 nM; in the data set on pPKB S473 in A2058 cells (A2058, 1 h) it was 340 nM.

For `C[C@H]1COCCN1c1nc(-c2cnc(N)cc2C(F)(F)F)cc(N2CCOCC2)n1` [reference compound], the IC50 was determined as 228 nM in data set [1] (A2058, 1 h); 28 nM in data set [3]; 248 nM in the data set on pPKB S473 in A2058 cells (A2058, 1 h).

Turning to `C[C@H]1COCCN1c1nc(-c2cnc(N)nc2C(F)(F)F)cc(N2CCOCC2)n1` [reference compound], the IC50 in data set [1] (A2058, 1 h) is 535 nM; in data set [3], 186 nM; with pPKB S473 in A2058 cells (A2058, 1 h), 191 nM.

The values are drawn from patent publication US10993947B2, “Treatment of skin lesions” (PIQUR THERAPEUTICS AG, priority 2016, dated 2021).
